According to patent US20240261356A1, “COMPOSITION CONTAINING ACANTHOPANAX EXTRACT AND GARCINIA CAMBOGIA EXTRACT OR COMPOUND ISOLATED THEREFROM AS ACTIVE INGREDIENT FOR PREVENTION OR TREATMENT OF LIVER DISEASE” (KOREA RESEARCH INSTITUTE OF BIOSCIENCE AND BIOTECHNOLOGY, priority 2021, published 2024):

Experiments:
[1] = system: HepG2 cells; experiment: Fatty acid-induced intracellular fat accumulation (BODIPY fluorescence) in non-alcoholic fatty liver cell model; assay type: cell-based, human
Procedure: The human liver-derived HepG2 cell line was purchased from American Type Culture Collection (ATCC, VA, USA). HepG2 cells were cultured at 37° C. in an incubator supplied with 5% carbon dioxide. For the cell culture, MEM (Gibco Cat No. 11095-098) medium containing 10% fetal bovine serum (FBS) and 1% antibiotics (Penicillin-streptomycin, Gibco) was used. HepG2 cells were seeded in a 96-well plate at 1×10^4 cells/well, and, after 24 hours, treated with 150 μM oleic acid (Sodium oleate, Sigma, USA) for 24 hours to increase intracellular fat accumulation. The drug treated group was treated 1 hour before being treated with oleic acid. Upon completion of the experiment, the cells were fixed with 4% formaldehyde for 10 minutes and washed twice with PBS buffer. A solution containing […] (Invitrogen Corporation, NY, USA) was added and cultured at room temperature for 30 minutes. At this time, the final concentration of the fluorescent dye BODIPY was 2 μg/ml. After completion of the reaction, the plate was washed three times with PBS buffer, and, when only the minimum amount of PBS remained, the fluorescence was quantified by using a SpectraMax M4 microplate reader (Molecular Devices, USA). At this time, the excitation wavelength was 485 nm, and the emission was 525 nm. The experiment was performed by blocking light with aluminum foil to allow in as little light as possible.

[2] = system: non-alcoholic steatohepatitis (NASH) animal models; experiment: Fibrosis marker hydroxyproline in liver tissue of NASH animal model; assay type: in vivo, C57bl/6J mice; settings: NASH mice, 8 weeks, Chiisanogenin 50 mg/kg
Procedure: (§1) 8-week-old male C57bl/6J mice were fed a NASH-inducing diet (#A06071302 diet) for 8 weeks, and, from the 9th week, single samples (i.e., Garcinia extract, Acanthopanax extract or Chiisanogenin) and a composite sample thereof were administered for 8 weeks, together with NASH dietary feed (#A06071302 diet). To verify the efficacy of each of the Garcinia extract (notified raw material, 60% HCA) and Chiisanogenin or their mixture at each non-clinical administration concentration by using a non-alcoholic steatohepatitis (NASH)-induced animal model, changes of aspartate aminotransferase (AST) and alanine aminotransferase (ALT), which are biomarkers of liver tissue damage, in the serum of the non-alcoholic steatohepatitis (NASH) C57bl/6J mouse models caused by feeding NASH-inducing dietary feed (#A06071302) were observed, and the results are shown in Tables 11 and 12, respectively. In addition, the results of observing changes of hydroxyproline, which is a biomarker of liver fibrosis, in liver tissues are shown in Table 13.

[3] = system: non-alcoholic steatohepatitis (NASH) animal models; experiment: AST in serum of non-alcoholic steatohepatitis (NASH) animal model; assay type: in vivo, C57bl/6J mice; settings: NASH mice, 8 weeks, Chiisanogenin 50 mg/kg
Procedure: as §1

[4] = system: non-alcoholic steatohepatitis (NASH) animal models; experiment: ALT in serum of non-alcoholic steatohepatitis (NASH) animal model; assay type: in vivo, C57bl/6J mice; settings: NASH mice, 8 weeks, Chiisanogenin 50 mg/kg
Procedure: as §1

[5] = system: HepG2 cells; experiment: Cell viability (CCK-8) of fatty acid-induced non-alcoholic fatty liver cell model; assay type: cell-based, human; settings: Table 6, Garcinia extract 0 + Chiisanogenin 6 μg/ml
Procedure: The human liver-derived HepG2 cell line was purchased from American Type Culture Collection (ATCC, VA, USA). HepG2 cells were cultured at 37° C. in an incubator supplied with 5% carbon dioxide. For the cell culture, MEM (Gibco Cat No. 11095-098) medium containing 10% fetal bovine serum (FBS) and 1% antibiotics (Penicillin-streptomycin, Gibco) was used. HepG2 cells were seeded in a 96-well plate at 1×10^4 cells/well, and, after 24 hours, treated with 150 μM oleic acid (Sodium oleate, Sigma, USA) for 24 hours to increase intracellular fat accumulation. The drug treated group was treated 1 hour before being treated with oleic acid. […] After completion of the reaction, the plate was washed three times with PBS buffer, and, when only the minimum amount of PBS remained, the fluorescence was quantified by using a SpectraMax M4 microplate reader (Molecular Devices, USA). […]
In the experimental conditions of the present invention, cell viability was determined by mixing 90 μl of medium with 10 μl of CCK-8 solution, adding 100 μl per well and reacting the mixture for at least 30 minutes to 1 hour, followed by measurement of the absorbance at 450 nm, as described in the CCK-8 (Dojindo) kit. The cell viability was calculated according to Equation 1 below, taking the negative control as 100%, and the results are shown in Tables 8 and 9 below.

C=C(C)[C@@H]1CC[C@]2(C(=O)O)CC[C@]3(C)[C@H](C[C@H]4OC(=O)C[C@@H](O)[C@]5(C)[C@@H]4[C@@]3(C)CC[C@H]5C(=C)C)[C@@H]12 [Chiisanogenin]
inhibition at 6 µg/mL ([1]; Homo sapiens, HepG2, Table 4, fat accumulation, Garcinia extract 0 + Chiisanogenin 6 μg/ml, read-out: Inhibition rate (%)): 80%
TG (% relative to positive control group, mean ± deviation) ([1]; Table 4, Garcinia extract 0 + Chiisanogenin 6 μg/ml): 64 ± 7.9 %
Hydroxyproline in liver tissues (% relative to positive control group, mean ± deviation) [2]: 69 ± 28%
Inhibition rate (%, mean ± deviation) ([2]; liver hydroxyproline): 26 ± 11.9%
AST in serum (% relative to positive control group, mean ± deviation) [3]: 97 ± 15.4%
Inhibition rate (%, mean ± deviation) ([3]; serum AST): 4 ± 19.8%
ALT in serum (% relative to positive control group, mean ± deviation) [4]: 89 ± 14.6%
Inhibition rate (%, mean ± deviation) ([4]; serum ALT): 12 ± 5.1%
Cell viability (%, mean ± deviation) [5]: 105 ± 13.7%
